This note sets out measurements from patent publication US4826844A, “Substituted 1-(aralkyl-piperazinoalkyl) cycloalkanols” (American Home Products Corporation, priority 1987, dated 1989).

For one experiment, the target named is T1, dopamine D2 receptors (Rattus norvegicus, UniProt P61169).
T1 construct: found in homogenized limbic brain tissue; from tissue; host or cells: homogenized limbic brain tissue
The experiment is described as follows: inhibition of 3H-haloperidol binding at dopamine D2 receptors in homogenized limbic brain tissue. As to conditions: for inhibition at 1 µM: read-out: Receptor Binding D2 % Inhibition at 1 μM.

The next experiment addresses T2, 5-HT1A receptor (Rattus norvegicus, UniProt P19327).
T2 construct: from tissue; host or cells: rat hippocampus
T2 sequence (P19327 1-422): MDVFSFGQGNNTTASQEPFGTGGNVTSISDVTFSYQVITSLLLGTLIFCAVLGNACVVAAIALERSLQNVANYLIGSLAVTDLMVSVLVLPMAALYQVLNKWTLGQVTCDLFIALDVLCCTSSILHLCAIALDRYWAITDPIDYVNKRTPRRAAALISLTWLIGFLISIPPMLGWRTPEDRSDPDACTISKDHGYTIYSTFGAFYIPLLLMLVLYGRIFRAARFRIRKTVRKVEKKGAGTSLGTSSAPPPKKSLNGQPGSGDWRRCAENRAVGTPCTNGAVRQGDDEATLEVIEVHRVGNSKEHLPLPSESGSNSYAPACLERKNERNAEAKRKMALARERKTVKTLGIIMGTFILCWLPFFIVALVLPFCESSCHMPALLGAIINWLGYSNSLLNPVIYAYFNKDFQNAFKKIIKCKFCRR
The experiment is described as follows: inhibition of [3H] 8-hydroxy-2-(di-n-propylamino)tetralin binding at 5-HT1A receptor sites. As to conditions: rat hippocampal tissue.

Experiment [1] deals with synaptosomial uptake of norepinephrine. Briefly: inhibition of synaptosomial uptake of norepinephrine (3H-NE). The experiment is classed as biochemical. The settings on record: for IC50 / Neuronal Uptake NE % Inhibition at 10 μM: synaptosomes; for IC50: read-out: Neuronal Uptake NE IC50. The source says: (§1) The pharmacological test data obtained for a representative number of compounds of this invention in accordance with the standard experimental test procedures disclosed above appear in the following table: […]

Experiment [2] deals with synaptosomial uptake of serotonin. Briefly: inhibition of synaptosomial uptake of serotonin (14C-5-HT). The experiment is classed as biochemical. As to conditions: synaptosomes.
Description: as §1

SMILES strings stand for the structures.

The term inhibition denotes the change of the read-out against control, counted positive when it falls. A word on the IC50: it is the concentration that inhibits the measured activity by half. What is called Ki is a dissociation constant, usually derived from enzyme kinetics or from competition with a known ligand.

T1 sequence (P61169 whole entry): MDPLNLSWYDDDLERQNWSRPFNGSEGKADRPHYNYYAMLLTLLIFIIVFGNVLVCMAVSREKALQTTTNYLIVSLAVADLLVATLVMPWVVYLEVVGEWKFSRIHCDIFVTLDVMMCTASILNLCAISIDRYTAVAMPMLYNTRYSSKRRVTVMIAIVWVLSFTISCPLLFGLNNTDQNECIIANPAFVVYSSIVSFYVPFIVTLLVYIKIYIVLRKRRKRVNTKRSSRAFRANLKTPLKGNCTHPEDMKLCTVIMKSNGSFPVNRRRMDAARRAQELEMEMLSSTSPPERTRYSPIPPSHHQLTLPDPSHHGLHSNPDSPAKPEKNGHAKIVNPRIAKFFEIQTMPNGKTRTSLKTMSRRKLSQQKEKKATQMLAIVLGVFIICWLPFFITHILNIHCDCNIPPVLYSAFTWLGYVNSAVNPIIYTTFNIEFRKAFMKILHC
Description for 5-HT1A receptor: 8-hydroxy-2-(di-n-propylamino)tetralin binding at 5-HT binding sites in rat hippocampal tissue, following the procedure of Hall et al., J. Neurochem., 44 1685 (1985).
Description for dopamine D2 receptors: The actual percentage reduction of ^3 H-haloperidol binding is reported infra and the larger the number, the greater the potential for dopamine D2 receptor binding and antipsychotic activity.

`COc1ccc(C(CCN2CCN(Cc3ccc(C(F)(F)F)cc3)CC2)C2(O)CCCCC2)cc1` (stereo not drawn) [Example 14, 1-[1-(4-Methoxyphenyl)-3-[4-[[4-(trifuloromethyl)phenyl]methyl]-1-piperazinyl]propyl]cyclohexanol]: the inhibition at 1 µM on dopamine D2 receptors (3H-haloperidol) was determined as 25%; at 5-HT1A receptor, 63%.
Consider `COc1cccc(C(CCN2CCN(Cc3cccc(F)c3)CC2)C2(O)CCCCC2)c1` (stereo not drawn) [Example 7, 1-[3-[4-[(3-Fluorophenyl)methyl]-1-piperazinyl]-1-(3-methoxyphenyl)propyl]cyclohexanol], for which the figures for the inhibition at 1 µM at dopamine D2 receptors (3H-haloperidol) and on 5-HT1A receptor were 89% and 93%, respectively.
As to `CN1CCN(CC(c2cccc(Cl)c2)C2(O)CCCCC2)CC1` (stereo not drawn) [Example 26, 1-[1-(3-Chlorophenyl)-2-(4-methyl-1-piperazinyl)ethyl]cyclohexanol], on dopamine D2 receptors (3H-haloperidol), the inhibition at 1 µM is 26%. In experiment [1], the “antidepressant activity by inhibition of synaptosomial uptake of norepinephrine and/or serotonin (in words)” value is recorded as “selective antidepressant activity” and the half-inhibitory concentration (IC50) was 180 nM. For the same molecule, the “Neuronal Uptake 5HT % Inhibition at 10 μM” value in experiment [2] worked out at 33%. On 5-HT1A receptor, the inhibition at 1 µM turned out to be 0%.
Regarding `COc1cccc(C(CN2CCN(Cc3ccccc3)CC2)C2(O)CCCCC2)c1` (stereo not drawn) [Example 15, 1-[1-(3-Methoxyphenyl)-2-[4-(phenylmethyl)-1-piperazinyl]ethyl]cyclohexanol], the inhibition at 1 µM is 90% on dopamine D2 receptors (3H-haloperidol) and 91% at 5-HT1A receptor.
For the molecule `COc1cccc(C(CCN2CCN(Cc3ccc(Cl)cc3)CC2)C2(O)CCCCC2)c1` (stereo not drawn) [Example 5, 1-[3-[4-[(4-Chlorophenyl)methyl]-1-piperazinyl]-1-(3-methoxyphenyl)propyl]cyclohexanol], the inhibition at 1 µM at dopamine D2 receptors (3H-haloperidol) amounted to 51%; at 5-HT1A receptor it was 97%.
With `COc1cccc(C(CN2CCN(c3cccc(Cl)c3)CC2)C2(O)CCCCC2)c1` (stereo not drawn) [Example 18], the inhibition at 1 µM at dopamine D2 receptors (3H-haloperidol) amounted to 39%; on 5-HT1A receptor, 97%. In experiment [1], the “Neuronal Uptake NE % Inhibition at 10 μM” value is given as 38%. Also, the “Neuronal Uptake 5HT % Inhibition at 10 μM” value in experiment [2] worked out at 62%.
Regarding `COc1ccc(C(CCN2CCN(Cc3ccccc3OC)CC2)C2(O)CCCCC2)cc1` (stereo not drawn) [Example 13], the inhibition at 1 µM on dopamine D2 receptors (3H-haloperidol) came to 77%; on 5-HT1A receptor, 93%.
As for `COc1cccc(C(CCN2CCN(Cc3cccc(Cl)c3)CC2)C2(O)CCCCC2)c1` (stereo not drawn) [Example 4, 1-[3-[4-[(3-Chlorophenyl)methyl]-1-piperazinyl]-1-(3-methoxyphenyl)propyl]cyclohexanol], the “dopamine D2 receptor affinity / binding potential (in words)” value at dopamine D2 receptors was “typical D2 binding potential”. Besides, the inhibition at 1 µM on dopamine D2 receptors (3H-haloperidol) came out at 90%; at 5-HT1A receptor it was 66%.
Consider `COc1ccc(C(CCN2CCN(Cc3ccccc3)CC2)C2(O)CCCCC2)cc1` (stereo not drawn) [Example 8, 1-[1-(4-Methoxyphenyl)-3-[4-(phenylmethyl)-1-piperazinyl]propyl]cyclohexanol], for which the figures for the inhibition at 1 µM on dopamine D2 receptors (3H-haloperidol) and on 5-HT1A receptor were 55% and 99%, respectively. Further, the IC50 in experiment [1] is 610 nM. In addition, the “Neuronal Uptake 5HT % Inhibition at 10 μM” value in experiment [2] is on record as 67%.
Consider `COc1cccc(C(CCN2CCN(Cc3ccccc3)CC2)C2(O)CCCCC2)c1` (stereo not drawn) [Example 1, 1-[1-(3-Methoxyphenyl)-3-[4-(phenylmethyl)-1-piperazinyl]propyl]cyclohexanol], for which the Ki is 209 nM on dopamine D2 receptors (3H-haloperidol, read-out: Receptor Binding D2 Ki) and 10 nM at 5-HT1A receptor. For the same molecule, the values for the IC50 in experiment [1] and in experiment [2] (read-out: Neuronal Uptake 5HT IC50) were 2030 nM and 390 nM, respectively. Also, the “affinity at 5-HT1A receptor binding sites (in words)” value at 5-HT1A receptor was “strong affinity at 5-HT1A receptor binding sites”.
With `COc1cccc(C(CCN2CCN(c3ncccn3)CC2)C2(O)CCCCC2)c1` (stereo not drawn) [Example 2, 1-[1-(3-Methoxyphenyl)-3-[4-(2-pyrimidinyl)-1-piperazinyl]propyl]cyclohexanol], the inhibition at 1 µM at dopamine D2 receptors (3H-haloperidol) is 59%; at 5-HT1A receptor it was 78%.
As to `COc1cccc(C(CCN2CCN(Cc3ccccc3OC)CC2)C2(O)CCCCC2)c1` (stereo not drawn) [Example 6, 1-[1-(3-Methoxyphenyl)-3-[4-[(2-methoxyphenyl)methyl]-1-piperazinyl]propyl]cyclohexanol], the inhibition at 1 µM stood at 91% at dopamine D2 receptors (3H-haloperidol) and 93% on 5-HT1A receptor.
For the molecule `COc1cccc(C(CCN2CCN(c3cncc(Cl)n3)CC2)C2(O)CCCCC2)c1` (stereo not drawn) [Example 3, 1-[3-[4-(6-Chloro-2-pyrazinyl)-1-piperazinyl]-1-(3-methoxyphenyl)propyl]cyclohexanol], the inhibition at 1 µM on dopamine D2 receptors (3H-haloperidol) worked out at 41%. Moreover, the Ki on 5-HT1A receptor worked out at 122 nM.
`COc1ccc(C(CCN2CCN(c3cncc(Cl)n3)CC2)C2(O)CCCCC2)cc1` (stereo not drawn) [Example 9, 1-[3-[4-(6-Chloro-2-pyrazinyl)-1-piperazinyl]-1(4-methoxyphenyl)propyl]cyclohexanol]: the inhibition at 1 µM was found to be 15% at dopamine D2 receptors (3H-haloperidol) and 57% at 5-HT1A receptor.
For `COc1ccc(C(CCN2CCN(Cc3cccc(OC)c3)CC2)C2(O)CCCCC2)cc1` (stereo not drawn) [Example 10], the inhibition at 1 µM on dopamine D2 receptors (3H-haloperidol) was 73%; on 5-HT1A receptor, 99%.
For `OC1(C(CN2CCN(c3cccc(Cl)c3)CC2)c2cccc(Cl)c2)CCCCC1` (stereo not drawn) [Example 19, 1-[1-(3-Chlorophenyl)-2-[4-(3-chlorophenyl)-1-piperazinyl]ethyl]cyclohexanol], the inhibition at 1 µM is 32% at dopamine D2 receptors (3H-haloperidol) and 94% at 5-HT1A receptor.
The like results for `COc1ccc(C(CCN2CCN(Cc3cccc(Cl)c3)CC2)C2(O)CCCCC2)cc1` (stereo not drawn) [Example 12, 1-[3-[4-[(3-Chlorophenyl)methyl]-1-piperazinyl]-1-(4-methoxyphenyl)propyl]cyclohexanol] were, in that order, 95% and 100%.
In the case of `COc1ccc(C(CCN2CCN(c3ncccn3)CC2)C2(O)CCCCC2)cc1` (stereo not drawn) [Example 24], the inhibition at 1 µM at dopamine D2 receptors (3H-haloperidol) worked out at 11%.
Consider `COc1ccc(C(CCN2CCN(Cc3cccc(C(F)(F)F)c3)CC2)C2(O)CCCCC2)cc1` (stereo not drawn) [Example 11, 1-[1-(4-Methoxyphenyl)-3-[4-[[3-(trifluoromethyl)phenyl]methyl]-1-piperazinyl]propyl]cyclohexanol], for which the “dopamine D2 receptor affinity / binding potential (in words)” value at dopamine D2 receptors was “typical D2 binding potential”. The inhibition at 1 µM on dopamine D2 receptors (3H-haloperidol) and on 5-HT1A receptor was 100% each time.
Consider `CN1CCN(CC(c2cccc(C(F)(F)F)c2)C2(O)CCCCC2)CC1` (stereo not drawn) [Example 27, 1-[2-(4-Methyl-1-piperazinyl)-1-[3-(trifluoromethyl)phenyl]ethyl]cyclohexanol], for which the inhibition at 1 µM amounted to 0% at dopamine D2 receptors (3H-haloperidol) and 5% at 5-HT1A receptor. In experiment [1], the “Neuronal Uptake NE % Inhibition at 10 μM” value is reported as 86%. Moreover, the “antidepressant activity by inhibition of synaptosomial uptake of norepinephrine and/or serotonin (in words)” value in experiment [1] was “selective antidepressant activity”. The “Neuronal Uptake 5HT % Inhibition at 10 μM” value in experiment [2] stood at 0%.
